Test results as given in publication PMC11125039, “An Effective Modification Strategy to Build Multifunctional Peptides Based on a Trypsin Inhibitory Peptide of the Kunitz Family” (Pharmaceutics, 2024).
Like-named read-outs stand apart in the source and are kept apart here. Bridge positions count the residues as written; N and C are the ends. Peptide text beside a SMILES is read from it.

Assays:
[1] = tested on: E. coli (NCTC 13846); assay: Time-killing kinetic assay; type: cell-based, Escherichia coli; conditions: for killing kinetics (in words): MIC, 2 × MIC and 4 × MIC
Method: (§1) The time-killing kinetic assay was executed to explore the killing efficiency of the peptides against bacteria. […] The bacteria were cultured using the same method as that employed in the antimicrobial activity determination assay. […] All colonies were counted and recorded after the seeded plates had been incubated at 37 °C for 24 h.

[2] = tested on: E. coli (BAA 2340); assay: Time-killing kinetic assay; type: cell-based, Escherichia coli
Method: as §1

[3] = tested on: E. coli (BAA 2340)-infected waxworms; type: in vivo, Galleria mellonella
Method: The larvae of Galleria mellonella were used to evaluate the in vivo antibacterial activity of the peptides. In this assay, the larvae (250 ± 25 mg) (Livefood UK Ltd., Rooks Bridge, UK) of the infected group were infected with 10 μL of a bacterial suspension (1 × 10^7 CFU/mL). After one hour, 10 μL of a peptide solution was injected into each infected larva. As a positive control, infected larvae received 20 mg/kg of rifampicin. The vehicle control consisted of uninfected larvae administered 10 μL of PBS. All larvae were then monitored every 24 h for a duration of five days.

[4] = tested on: U251MG; assay: Antiproliferation assay (MTT); type: cell-based, human; conditions: 24 h
Method: (§4) The tested human cell lines in this assay included cancerous and non-cancerous cell lines: a human breast cancer cell line (MCF-7), a human lung carcinoma cell line (H838), a human colorectal carcinoma cell line (HCT116), and a human glioblastoma astrocytoma cell line (U251MG); these cell lines were incubated with the peptides at concentrations between 10^−4 to 10^−9 M to study their antiproliferation ability against cancer cells. Also, for the safety evaluation, a human skin keratinocyte cell line (HaCaT) was selected to investigate the cytotoxicity of peptides against normal human cells.
(§5) At first, after the stock cells were revived, they were transferred into a 75 mL flask with 10 mL of the corresponding culture medium and cultured for 3–5 days at 37 °C until most cells had attached to the flask wall. Then, the culture medium was removed, and 10 mL of PBS was used to wash the wall twice and discarded. Subsequently, 3–4 mL of a trypsin solution was added for 2–3 min to detach the cells from the container wall and then 8–10 mL of FBS was added to stop the digestion reaction. The cell suspension was transferred into a 15 mL tube and centrifuged. The supernatant was removed and 4 mL of complete growth medium was added to this tube to prepare a stock cell suspension. Approximately 10 µL of a mixture containing an equal volume of trypan blue and cell medium was dropped into a chamber to measure the density of cells under the microscope. Based on the cell density, the cell suspension was diluted with foetal bovine serum (FBS) (Sigma-Aldrich, St. Louis, MO, USA) to the standard cell density (H838, MCF-7: 8 × 10^4; U251MG: 5 × 10^4; HCT116: 2 × 10^5; HaCaT: 2 ×10^5 cells/mL). Then, it was seeded into a 96-well plate at 100 μL/well. After 20–24 h incubation, 100 μL of serum-free medium was used to replace the previous FBS medium and the plate was incubated another 4 h for cell starvation. […] After 10 min of shaking, the cell viability in each well was read at a wavelength of 570 nm.

[5] = tested on: H838; assay: Antiproliferation assay (MTT); type: cell-based, human; conditions: H838, 24 h
Method: as §4
(§6) At first, after the stock cells were revived, they were transferred into a 75 mL flask with 10 mL of the corresponding culture medium and cultured for 3–5 days at 37 °C until most cells had attached to the flask wall. Then, the culture medium was removed, and 10 mL of PBS was used to wash the wall twice and discarded. Subsequently, 3–4 mL of a trypsin solution was added for 2–3 min to detach the cells from the container wall and then 8–10 mL of FBS was added to stop the digestion reaction. The cell suspension was transferred into a 15 mL tube and centrifuged. The supernatant was removed and 4 mL of complete growth medium was added to this tube to prepare a stock cell suspension. […] After 10 min of shaking, the cell viability in each well was read at a wavelength of 570 nm.

[6] = tested on: HCT116; assay: Antiproliferation assay (MTT); type: cell-based, human; conditions: HCT116, 24 h
Method: as §4
At first, after the stock cells were revived, they were transferred into a 75 mL flask with 10 mL of the corresponding culture medium and cultured for 3–5 days at 37 °C until most cells had attached to the flask wall. Then, the culture medium was removed, and 10 mL of PBS was used to wash the wall twice and discarded. Subsequently, 3–4 mL of a trypsin solution was added for 2–3 min to detach the cells from the container wall and then 8–10 mL of FBS was added to stop the digestion reaction. The cell suspension was transferred into a 15 mL tube and centrifuged. The supernatant was removed and 4 mL of complete growth medium was added to this tube to prepare a stock cell suspension. Approximately 10 µL of a mixture containing an equal volume of trypan blue and cell medium was dropped into a chamber to measure the density of cells under the microscope. Based on the cell density, the cell suspension was diluted with foetal bovine serum (FBS) (Sigma-Aldrich, St. Louis, MO, USA) to the standard cell density (H838, MCF-7: 8 × 10^4; U251MG: 5 × 10^4; HCT116: 2 × 10^5; HaCaT: 2 ×10^5 cells/mL). Then, it was seeded into a 96-well plate at 100 μL/well. After 20–24 h incubation, 100 μL of serum-free medium was used to replace the previous FBS medium and the plate was incubated another 4 h for cell starvation. At the same time, the peptide was dissolved in DMSO at a concentration of 10^−2 M and then mixed with the serum-free medium at working concentrations ranging from 10^−7 to 10^−4 M. Finally, the medium in the 96-well plate was replaced with the peptide solutions. The experimental group used 100 μL of the working concentration peptide solution. The vehicle group consisted of 1 µL of DMSO and 99 µL of serum-free medium. The blank and growth groups both comprised 100 µL of serum-free medium. The loaded 96-well plate was incubated for another 24 h for the treatment. The next day, 10 µL of MTT was added to each well and incubated for 2 h, after which, all media in each well were discarded and substituted with 100 μL of DMSO. After 10 min of shaking, the cell viability in each well was read at a wavelength of 570 nm.

[7] = tested on: HaCaT; assay: Antiproliferation assay (MTT), normal cell cytotoxicity; type: cell-based, human; conditions: HaCaT (normal cell line), 24 h
Method: as §4, §5

[8] = tested on: MCF-7; conditions: MCF-7, 24 h, MTT
Method: as §4, §6

[9] = tested on: E. coli (NCTC 13846); assay: SYTOX Green permeability assay; type: cell-based, Escherichia coli; conditions: at the MIC
Method: (§2) The SYTOX^TM Green Nucleic Acid Stain (ThermoFisher Scientific, Waltham, MA, USA) assay was used to investigate the antibacterial mechanism of the peptides as they cannot cross intact membranes, but can easily penetrate the damaged membranes characteristic of dead cells.
(§3) After being sub-cultured for 2 h, the bacteria were centrifuged at 1000× g for 10 min at 4 °C; then, the culture medium was discarded. […] After a third wash, the bacteria were diluted with the same solution until they reached the logarithmic growth phase in which the OD value just reached 0.70 at a wavelength of 590 nm. […] Finally, 10 μL of SYTOX^TM green nucleic acid stain (5 μM) was added to the plate and the mixture was incubated at 37 °C under dark conditions for another 5 min. […] Bacterial medium with 5% TSB acted as the negative control; bacterial medium treated with a melittin peptide solution (8 μM) was set as the positive control; 5% TSB alone was the blank control.

[10] = tested on: E. coli (BAA 2340); assay: SYTOX Green permeability assay; type: cell-based, Escherichia coli; conditions: at the MIC
Method: as §2, §3

[11] = tested on: E. coli (ATCC CRM 8739); assay: SYTOX Green permeability assay; type: cell-based, Escherichia coli; conditions: at the MIC
Method: as §2, §3

[12] = 4 × MIC of peptide, after 120 h of infection

CC[C@H](C)[C@H](N)C(=O)N[C@@H](CCCCN)C(=O)N[C@@H](Cc1ccccc1)C(=O)N[C@@H](CCCCN)C(=O)N[C@H](C(=O)N[C@@H](Cc1c[nH]cn1)C(=O)N[C@@H](Cc1ccccc1)C(=O)N[C@@H](CCCNC(=N)N)C(=O)N[C@H]1CSSC[C@@H](C(=O)O)NC(=O)[C@H](Cc2ccccc2)NC(=O)[C@H](C)NC(=O)[C@H](C)NC(=O)[C@H](CCCCN)NC1=O)C(C)C [OSTI−1696] (H-IKFKVHFRCKAAFC-OH; disulfide 9-14; N-terminus and C-terminus assumed)
killing kinetics (in words) [1]: almost instant bactericidal activity
time to kill bacteria ([2]; at 2 × MIC): ≤ 5 min
time to kill bacteria ([2]; at 4 × MIC): ≤ 5 min
time to kill bacteria ([2]; at the MIC): ≤ 10 min
mortality of infected larvae [3, 12]: 20%
IC50 [4]: N.I.
IC50 [5]: N.I.
IC50 [6]: N.I.

CC[C@H](C)[C@H](NC(=O)[C@@H](N)C(C)C)C(=O)N[C@@H](Cc1ccccc1)C(=O)N[C@@H](CCCCN)C(=O)N[C@H](C(=O)N[C@@H](Cc1ccccc1)C(=O)N[C@@H](Cc1c[nH]c2ccccc12)C(=O)N[C@@H](CCCNC(=N)N)C(=O)N[C@H]1CSSC[C@@H](C(=O)O)NC(=O)[C@H](Cc2ccccc2)NC(=O)[C@H](C)NC(=O)[C@H](C)NC(=O)[C@H](CCCCN)NC1=O)C(C)C [OSTI−1716] (H-VIFKVFWRCKAAFC-OH; disulfide 9-14; N-terminus and C-terminus assumed)
IC50 [6]: N.I.

CC[C@H](C)[C@H](NC(=O)[C@H](CC(N)=O)NC(=O)[C@@H](NC(=O)[C@H](C)N)C(C)C)C(=O)N1CCC[C@H]1C(=O)N[C@@H](Cc1ccccc1)C(=O)N[C@@H](CCCCN)C(=O)N[C@H](C(=O)N[C@@H](Cc1c[nH]cn1)C(=O)N[C@@H](Cc1ccccc1)C(=O)N[C@@H](CCCNC(=N)N)C(=O)N[C@H]1CSSC[C@@H](C(=O)O)NC(=O)[C@H](Cc2ccccc2)NC(=O)[C@H](C)NC(=O)[C@H](C)NC(=O)[C@H](CCCCN)NC1=O)C(C)C [OSTI−1949] (H-AVNIPFKVHFRCKAAFC-OH; disulfide 12-17; N-terminus and C-terminus assumed)
IC50 [7]: N.I.
IC50 [8]: N.I.
IC50 [4]: N.I.
IC50 [5]: N.I.
uptake of SYTOX Green [9]: approximately 50%
uptake of SYTOX Green [10]: approximately 50%
uptake of SYTOX Green [11]: approximately 50%
IC50 [6]: N.I.

CC(C)[C@H](NC(=O)[C@H](C)N)C(=O)N[C@@H](CCCCN)C(=O)N[C@@H](CCCNC(=N)N)C(=O)N[C@@H](C)C(=O)N[C@H](C(=O)N[C@@H](CCCCN)C(=O)N[C@@H](CCCNC(=N)N)C(=O)N[C@@H](Cc1ccccc1)C(=O)N[C@@H](CCCCN)C(=O)N[C@H](C(=O)N[C@@H](Cc1c[nH]cn1)C(=O)N[C@@H](Cc1ccccc1)C(=O)N[C@@H](CCCNC(=N)N)C(=O)N[C@H]1CSSC[C@@H](C(=O)O)NC(=O)[C@H](Cc2ccccc2)NC(=O)[C@H](C)NC(=O)[C@H](C)NC(=O)[C@H](CCCCN)NC1=O)C(C)C)C(C)C [OSTI−2363] (H-AVKRAVKRFKVHFRCKAAFC-OH; disulfide 15-20; N-terminus and C-terminus assumed)
IC50 [7]: N.I.
IC50 [8]: N.I.
killing kinetics (in words) [1]: almost instant bactericidal activity
time to kill bacteria ([1]; lowest tested concentration (MIC)): ≤ 5 min
killing kinetics (in words) ([2]; MIC, 2 × MIC and 4 × MIC): almost instant bactericidal activity
time to kill bacteria ([2]; at the MIC): ≤ 5 min
mortality of infected larvae [3, 12]: 40%
IC50 [4]: N.I.
IC50 [6]: N.I.

CC[C@H](C)[C@H](NC(=O)[C@H](CC(N)=O)NC(=O)[C@@H](NC(=O)[C@H](C)N)C(C)C)C(=O)N1CCC[C@H]1C(=O)N[C@@H](Cc1ccccc1)C(=O)N[C@@H](CCCCN)C(=O)N[C@H](C(=O)N[C@@H](Cc1c[nH]cn1)C(=O)N[C@@H](Cc1ccccc1)C(=O)N[C@@H](CCCCN)C(=O)N[C@H](C(=O)N[C@@H](Cc1c[nH]cn1)C(=O)N[C@@H](Cc1ccccc1)C(=O)N[C@@H](CCCNC(=N)N)C(=O)N[C@H]1CSSC[C@@H](C(=O)O)NC(=O)[C@H](Cc2ccccc2)NC(=O)[C@H](C)NC(=O)[C@H](C)NC(=O)[C@H](CCCCN)NC1=O)C(C)C)C(C)C [OSTI−2461] (H-AVNIPFKVHFKVHFRCKAAFC-OH; disulfide 16-21; N-terminus and C-terminus assumed)
IC50 [7]: N.I.
IC50 [6]: N.I.

CO[C@H]1/C=C/O[C@@]2(C)Oc3c(C)c(O)c4c(O)c(c(/C=N/N5CCN(C)CC5)c(O)c4c3C2=O)NC(=O)/C(C)=C\C=C\[C@H](C)[C@H](O)[C@@H](C)[C@@H](O)[C@@H](C)[C@H](OC(C)=O)[C@@H]1C [rifampicin, reference compound]
mortality of infected larvae ([3]; 20 mg/kg, 5 days, positive control): 20%
